ChEMBL document CHEMBL5131469, “Design, synthesis and biological evaluation of novel procaine derivatives for intravenous anesthesia” (Bioorg Med Chem Lett, 2022)
Active and inactive are the calls of the source. The rule behind the calls is not given here.

Tests used:
[1] = tested on: Mus musculus; assay: Anesthetic activity in mouse assessed as loss of righting […] administered as single injection via caudal vein; type: functional; details: route iv
[2] = Therapeutic index, ratio of LD50 for toxicity in mouse to ED50 for anesthetic activity in mouse; type: organism-based; details: in vivo, read-out: Ratio LD50/ED50
[3] = Toxicity in mouse administered as single injection via caudal vein; details: in vivo, route iv
[4] = Lipophilicity, log D of the compound; type: physicochemical; details: octanol/water
[5] = tested on: Mus musculus; assay: Anesthetic activity in mouse assessed as reduction in recovery time of righting reflex at 1.5 times ED50, iv; type: functional, organism-based
[6] = Toxicity in mouse assessed as muscular rigidity at 1.5 times ED50, iv; details: in vivo
[7] = Toxicity in mouse assessed as severe respiratory suppression at 1.5 times ED50, iv; details: in vivo
[8] = Toxicity in mouse assessed as convulsion at 1.5 times ED50, iv; details: in vivo
[9] = Toxicity in mouse assessed as angular tension at 1.5 times ED50, iv; details: in vivo
[10] = Toxicity in mouse assessed as ankylosis at 1.5 times ED50, iv; details: in vivo
[11] = Solubility of the compound at pH 2; type: physicochemical; details: buffer
[12] = tested on: HEK293; assay: Reversible inhibition of human NR2B receptor expressed in HEK293 cells assessed as inhibition of L-glutamate-induced open-phase current at 500 uM in presence of glycine by whole-cell patch-clamp method relative to control; type: cell-based
[13] = Hepatotoxicity in iv dosed rat assessed as morphological change in liver administered continuously; type: toxicity, organism-based; details: in vivo
[14] = tested on: Rattus norvegicus; assay: Anesthetic activity in iv dosed rat assessed as loss of righting […] administered continuously; type: functional
[15] = Hepatotoxicity in iv dosed rat assessed as change in ALT level administered continuously; type: toxicity, organism-based; details: in vivo
[16] = Cardiotoxicity in iv dosed rat assessed as change in LDH level administered continuously; type: toxicity, organism-based; details: in vivo
[17] = Therapeutic index, ratio of LD50 for toxicity in iv dosed rat to ED50 for anesthetic activity in iv dosed rat; type: organism-based; details: in vivo, read-out: Ratio LD50/ED50
[18] = Cardiotoxicity in iv dosed rat assessed as change in CK-MB level administered continuously; type: toxicity, organism-based; details: in vivo
[19] = Cardiotoxicity in iv dosed rat assessed as morphological change in heart administered continuously; type: toxicity, organism-based; details: in vivo
[20] = Nephrotoxicity in iv dosed rat assessed as change in creatinine level administered continuously; type: toxicity, organism-based; details: in vivo
[21] = Toxicity in iv dosed rat assessed as body weight loss administered continuously as infusion for 2 weeks; type: organism-based; details: in vivo, 336 h
[22] = biological target: Voltage-gated inwardly rectifying potassium channel KCNH2 (Homo sapiens, UniProt Q12809); assay: Inhibition of human ERG
[23] = Stability in plasma (unknown origin); type: ADME, cell-free; details: unidentified
[24] = Nephrotoxicity in iv dosed rat assessed as change in urea level administered continuously; type: toxicity, organism-based; details: in vivo
[25] = Hepatotoxicity in iv dosed rat assessed as change in AST level administered continuously; type: toxicity, organism-based; details: in vivo
[26] = Nephrotoxicity in iv dosed rat assessed as morphological change in kidney administered continuously; type: toxicity, organism-based; details: in vivo
[27] = Toxicity in mouse assessed as adverse effect at 1.5 times ED50, iv; details: in vivo
[28] = Stability in human liver microsomes measured within 60 mins; type: ADME, Microsome; details: 1 h
[29] = Toxicity in iv dosed rat administered continuously; type: organism-based; details: in vivo
[30] = Cardiotoxicity in iv dosed rat assessed as change in alpha-HBDH level administered continuously; type: toxicity, organism-based; details: in vivo
[31] = Toxicity in iv dosed rat assessed as convulsion administered continuously; type: organism-based; details: in vivo
[32] = Toxicity in iv dosed rat assessed as muscular rigidity administered continuously; type: organism-based; details: in vivo
[33] = Toxicity in iv dosed rat assessed as muscle fibrillation administered continuously; type: organism-based; details: in vivo
[34] = Toxicity in iv dosed rat assessed as irregular respiratory rhythm administered continuously; type: organism-based; details: in vivo
[35] = Toxicity in iv dosed rat assessed as cyanosis administered continuously; type: organism-based; details: in vivo

Voltage-gated inwardly rectifying potassium channel KCNH2, sequence (Q12809 whole entry): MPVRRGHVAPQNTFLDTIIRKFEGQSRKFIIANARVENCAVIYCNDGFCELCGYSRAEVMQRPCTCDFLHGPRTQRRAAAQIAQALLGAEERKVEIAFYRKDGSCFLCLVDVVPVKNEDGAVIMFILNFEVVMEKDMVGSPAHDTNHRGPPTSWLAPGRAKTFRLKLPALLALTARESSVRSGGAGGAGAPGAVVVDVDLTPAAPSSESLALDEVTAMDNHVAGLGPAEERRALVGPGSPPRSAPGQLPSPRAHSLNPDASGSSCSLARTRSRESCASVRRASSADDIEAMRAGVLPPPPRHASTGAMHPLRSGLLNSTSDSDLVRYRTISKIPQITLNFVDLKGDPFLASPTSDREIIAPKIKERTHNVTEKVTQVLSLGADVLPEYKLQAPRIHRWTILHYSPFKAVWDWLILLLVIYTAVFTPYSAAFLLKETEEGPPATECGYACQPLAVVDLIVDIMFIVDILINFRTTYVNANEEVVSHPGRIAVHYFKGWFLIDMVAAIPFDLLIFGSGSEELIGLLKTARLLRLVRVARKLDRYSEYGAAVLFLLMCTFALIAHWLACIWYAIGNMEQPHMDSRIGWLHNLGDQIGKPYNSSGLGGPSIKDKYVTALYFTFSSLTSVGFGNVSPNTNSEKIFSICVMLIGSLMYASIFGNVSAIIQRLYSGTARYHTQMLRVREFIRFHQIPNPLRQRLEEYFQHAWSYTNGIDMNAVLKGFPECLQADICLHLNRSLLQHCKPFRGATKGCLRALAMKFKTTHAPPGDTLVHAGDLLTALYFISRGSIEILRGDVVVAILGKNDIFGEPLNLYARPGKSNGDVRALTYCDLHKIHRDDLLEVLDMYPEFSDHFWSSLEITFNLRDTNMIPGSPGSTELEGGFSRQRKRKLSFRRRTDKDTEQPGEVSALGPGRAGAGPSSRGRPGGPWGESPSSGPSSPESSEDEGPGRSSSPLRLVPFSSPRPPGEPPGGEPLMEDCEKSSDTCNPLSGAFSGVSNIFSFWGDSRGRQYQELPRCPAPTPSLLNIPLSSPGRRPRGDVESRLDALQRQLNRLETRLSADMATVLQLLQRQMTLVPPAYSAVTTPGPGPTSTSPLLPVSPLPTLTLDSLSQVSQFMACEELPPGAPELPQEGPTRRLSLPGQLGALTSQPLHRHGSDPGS

| Structure (SMILES) | ED50 [1] [mg/kg] | selectivity ratio [2] | LD50 [3] [mg/kg] | logD [4] | other results |
| --- | --- | --- | --- | --- | --- |
| CC(C)N1CCN(CCOC(=O)c2ccc(N)cc2)CC1 | 52.8 | < 1.5 | 58.6 | 0.92 |  |
| CC1CN(CCOC(=O)c2ccc(N)cc2)CCO1 (stereo unspecified) | 90.2 | 2.08 | 188 | 1 | Activity [5]: Active; Activity [6]: Toxic |
| CC1CC(C)CN(CCOC(=O)c2ccc(N)cc2)C1 (stereo unspecified) | 33.9 | 2.02 | 68.5 | 3.2 | Activity [7]: Toxic; Activity [8]: Toxic; Activity [9]: Toxic; Activity [10]: Toxic |
| CC1COCC(C)N1CCOC(=O)c1ccc(N)cc1 (stereo unspecified) | 160 | 2.49 | 399 | 0.42 |  |
| CC1COCCN1CCOC(=O)c1ccc(N)cc1 (stereo unspecified) | 119 | 2.13 | 253 | 0.62 |  |
| CN1CCN(CCOC(=O)c2ccc(N)cc2)CC1 | 84.2 | < 1.5 | 100 | 0.43 |  |
| Nc1ccc(C(=O)OCCN2CCSCC2)cc1 | 54 | 2.33 | 126 | 1.58 | solubility [11]: Insoluble |
| Nc1ccc(C(=O)OCCN2CCS(=O)(=O)CC2)cc1 | 45.5 | 2.53 | 115 | 1.63 | solubility [11]: Insoluble |
| CCN(CCOC)CCOC(=O)c1ccc(N)cc1 | 39.6 | 1.52 | 60.3 | 0.96 |  |
| CCN(CCO)CCOC(=O)c1ccc(N)cc1 | 90.2 | < 1.5 | 115 | 0.47 |  |
| CC1CN(CCOC(=O)c2ccc(N)cc2)CC(C)O1 (stereo unspecified) | 59.3 | 2.68 | 159 | 1.24 | Activity [5]: Active; inhibition [12]: > 80%; Activity [13]: Non-Toxic; ED50 [14]: 66 mg/kg; Activity [15]: Non-Toxic; Activity [16]: Non-Toxic; selectivity ratio [17]: 2.73; Activity [18]: Non-Toxic; Activity [19]: Non-Toxic; Activity [20]: Non-Toxic; Activity [21]: Non-Toxic; IC50 [22]: > 30 µM; Stability [23]: Unstable; Activity [24]: Non-Toxic; Activity [25]: Non-Toxic; Activity [26]: Non-Toxic; Activity [27]: Toxic; Stability [28]: Stable; LD50 [29]: 180 mg/kg; Activity [30]: Non-Toxic |
| COCCN(CCOC)CCOC(=O)c1ccc(N)cc1 | 55.2 | 1.89 | 104 | 0.83 |  |
| Nc1ccc(C(=O)OCCN(CCO)CCO)cc1 | 128 | < 1.5 | 160 | -0.19 |  |
| Nc1ccc(C(=O)OCCN2CCOCC2)cc1 | 148 | 2.46 | 365 | 0.54 |  |
| CCN1CCN(CCOC(=O)c2ccc(N)cc2)CC1 | 56 | < 1.5 | 64.3 | 0.81 |  |
| CCN(CC)CCOC(=O)c1ccc(N)cc1 [PROCAINE] | 42.8 | 1.65 | 70.5 | 1.07 | Activity [31]: Toxic; Activity [32]: Toxic; Activity [33]: Toxic; Activity [13]: Non-Toxic; ED50 [14]: 50.4 mg/kg; Activity [15]: Non-Toxic; Activity [16]: Non-Toxic; selectivity ratio [17]: 1.56; Activity [18]: Non-Toxic; Activity [19]: Non-Toxic; Activity [20]: Non-Toxic; Activity [34]: Toxic; Activity [21]: Non-Toxic; Activity [24]: Non-Toxic; Activity [25]: Non-Toxic; Activity [26]: Non-Toxic; Activity [27]: Toxic; LD50 [29]: 78.8 mg/kg; Activity [35]: Toxic; Activity [30]: Non-Toxic |
| Nc1ccc(C(=O)OCCN2CC[S+]([O-])CC2)cc1 | 42.7 | 2.57 | 110 | 1.55 | solubility [11]: Insoluble |
| CC(C)(C)N1CCN(CCOC(=O)c2ccc(N)cc2)CC1 | 42.2 | 1.86 | 78.4 | 1.15 |  |
